# Experimental data from the supplement of paper PMC10307832.
# Experiments:
# Experiment in all cases: relative viability (nuclei count vs DMSO), 5 days (fraction); higher = more cells survive
# [1] = compound: COc1ncc(-c2ccc3nccc(-c4ccnnc4)c3c2)cc1NS(=O)(=O)c1ccc(F)cc1F [Omipalisib] + Cc1cc(Nc2cc(N3CCN(C)CC3)nc(Sc3ccc(NC(=O)C4CC4)cc3)n2)n[nH]1 [Tozasertib] (partner 0.1 µM)
# Summary of the method: (§1)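 After 5 days of treatment, lung cancer cells in 1536-well plates were fixed and stained in a single step (final 0.05% Triton X-100, 1% formaldehyde, 1 ug/ml Hoechst) and their nuclei counted on 4× images. Treatment had been applied by pin tool the day after seeding as one drug alone or as a fixed anchor-drug dose with five library-drug doses (not always all listed) in √10 steps. Relative viability is the nuclei count of treated wells divided by that of vehicle wells, and values are medians of duplicate plates.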
# [2] = compound: COc1ncc(-c2ccc3nccc(-c4ccnnc4)c3c2)cc1NS(=O)(=O)c1ccc(F)cc1F [Omipalisib] + C[C@]1(O)C[C@@H](c2nc(-c3ccc4ccc(-c5ccccc5)nc4c3)c3c(N)nccn32)C1 [Linsitinib] (partner 1 µM)
# Summary of the method: as §1
# [3] = compound: COc1ncc(-c2ccc3nccc(-c4ccnnc4)c3c2)cc1NS(=O)(=O)c1ccc(F)cc1F [Omipalisib] + N=C(N)NC(=N)NCCc1ccccc1 [Phenformin] (partner 250 µM)
# Summary of the method: as §1
# [4] = compound: COc1ncc(-c2ccc3nccc(-c4ccnnc4)c3c2)cc1NS(=O)(=O)c1ccc(F)cc1F [Omipalisib] + CC(=O)Nc1cccc(-n2c(=O)n(C3CC3)c(=O)c3c(Nc4ccc(I)cc4F)n(C)c(=O)c(C)c32)c1 [Trametinib] (partner 0.02 µM)
# Summary of the method: as §1
# [5] = compound: COc1ncc(-c2ccc3nccc(-c4ccnnc4)c3c2)cc1NS(=O)(=O)c1ccc(F)cc1F [Omipalisib] + O=C(c1cc(Cc2n[nH]c(=O)c3ccccc23)ccc1F)N1CCN(C(=O)C2CC2)CC1 [Olaparib] (partner 8 µM)
# Summary of the method: as §1
# [6] = compound: COc1ncc(-c2ccc3nccc(-c4ccnnc4)c3c2)cc1NS(=O)(=O)c1ccc(F)cc1F [Omipalisib] + Cc1nc(NC(=O)N2CCC[C@H]2C(N)=O)sc1-c1ccnc(C(C)(C)C(F)(F)F)c1 [Alpelisib] (partner 2 µM)
# Summary of the method: as §1
Cell Line,relative viability ([1]; first compound 0.0003 µM),relative viability ([1]; first compound 0.003 µM),relative viability ([1]; first compound 0.03 µM),relative viability ([2]; first compound 0.0003 µM),relative viability ([2]; first compound 0.003 µM),relative viability ([2]; first compound 0.03 µM),relative viability ([3]; first compound 0.0003 µM),relative viability ([3]; first compound 0.003 µM),relative viability ([3]; first compound 0.03 µM),relative viability ([4]; first compound 0.0003 µM),relative viability ([4]; first compound 0.003 µM),relative viability ([4]; first compound 0.03 µM),relative viability ([5]; first compound 0.0003 µM),relative viability ([5]; first compound 0.003 µM),relative viability ([5]; first compound 0.03 µM),relative viability ([6]; first compound 0.0003 µM),relative viability ([6]; first compound 0.003 µM),relative viability ([6]; first compound 0.03 µM)
NCI-H727,0.666,0.623,0.378,0.276,0.245,0.234,0.817,0.447,0.509,0.381,0.337,0.264,0.754,0.612,0.598,0.594,0.445,0.5
PC-14,0.672,0.674,0.411,0.954,0.931,0.794,0.537,0.639,0.368,0.807,0.682,0.243,0.343,0.404,0.42,0.997,0.955,0.876
